Legend:
[1] = Analysis of hinokitiol residue on green beans after sun exposure; type: physicochemical, green bean; details: for [hinokitiol] in the HPLC injection solution: green bean leaves
Method: The goal of this study was to know stability of hinokitiol on plant leaves, instead of vials, after sun exposure. The following procedure was used • 1. A 3.2% Hinokitiol formulation containing propylene glycol, nonphytotoxic ethoxylate fatty esters; butanol, EDTA, UV protection agent, 1% sodium hydroxide and water for a total of 100% was used. The total weight of each formulation was 20 grams. • 2. Spraying solution: 10 mL of 100-fold dilution of the above formulation. • 3. Green bean plants: 6 plants with 10-15 leaves. • 4. Two plants were evenly sprayed 10 mL solution. • 5. Three plants was stored in dark incubator (25° C.), another three plants was put on the parking lot with full sun exposure (28˜35° C.). • 6. After 6 h, leaves were cut and punched into the same size discs (Ø21 mm). Discs from sun-exposed green bean and darkness green bean were 118 and 129, respectively. • 7. Discs were ground in a mortar and transferred into a separation funnel. The mortar and pestle were sequentially washed with 2 N HCl and ethyl acetate. The hinokitiol was extracted three times (3×50 mL) by ethyl acetate under 2N HCl (100 mL). The organic phase was dried by anhydrous sodium sulfate. After filtration and evaporation, the organic phase gave out a residue. The residue was dissolved by ethanol (1.5 mL). This solution was directly used for HPLC analysis. Injection volume was 10 μL.
• Darkness: leaf disc 129 • Sun exposure: leaf disc 118 • Darkness: Peak area (AU): 50463 • Sun exposure: Peak Area (AU); 13197 • Standard line: y=66.367X-52.019 (R^2=0.9999, X=μg/ml of hinokitiol standard solution, 2 μL injection volume; y=peak area)
• [hinokitiol] from darkness=152 μg/mL*1.5 mL/129 Disc=1.77 μg/Disc • [hinokitiol] from sun exposure=40 μg/mL*1.5 mL/118 Disc =0.51 μg/Disc
• [hinokitiol] from sun exposure/[hinokitiol] from darkness=0.51/1.77=0.29

[2] = system: annual bluegrass (Poa annua); experiment: Pot study, phytotoxicity and % weed control; type: in vivo
Method: (§1) A pot study was conducted to test the phytotoxicity of hinokitiol on both broadleaved and grass weed. Ten seeds of either chickweed (Stellaria media) or annual bluegrass (Poa annua) were planted in a plastic pot filled with potting mix. The 2-inch tall plants grown under growth lights (12-h light/12-h dark) at room temperature were sprayed with hinokitiol solutions containing 0.5, 1.0, 2.0, 3.0, 4.0 and 5.0 mg/mL hinokitiol in 50% ethanol. A solution of 50% ethanol without hinokitiol was used as a control treatment. The plants were kept at room temperature under growth lights and observed at two time points—4 and 14 days after treatment—for visual symptoms of phytotoxicity and % weed control.

[3] = system: chickweed (Stellaria media); experiment: Pot study, phytotoxicity and % weed control; type: in vivo
Method: as §1

[4] = system: Xanthomonas campestris (X-CAM); experiment: Spiral plating method, growth inhibition; type: cell-based; details: average distance of inhibition / 28 mm × 100
Method: (§2) The spiral plating method was used to deposit the fungicides on PDA and TSA plates with exponential logarithmic decrease of product concentration from the centre to the edge of the plate. The plates were left standing for four hours and inoculated with the fungus and bacteria. There were four repetitions of the same microorganism done per plate and there was one replica of each plate.
(§3) The plates were cultured for 3 days before measurements of growth were taken. The ‘distance of inhibition’ indicates the length of the zone with no growth, measured from center edge of the agar, the ‘colony width ratio’ indicates the ratio of the width of growth measured at the zero concentration and width at the highest concentration with growth.

Botrytis cinerea (BOT) = experiment: Spiral plating method, growth inhibition; type: cell-based; details: B. cinerea
Method: as §2, §3

Fusarium sp (FUSM) = experiment: Spiral plating method, growth inhibition; type: cell-based; details: average distance of inhibition / 28 mm × 100
Method: as §2, §3

[5] = system: Monilinia fructicola (MON); experiment: Spiral plating method, growth inhibition; type: cell-based; details: M. fructicola; average distance of inhibition / 28 mm × 100
Method: as §2, §3

[6] = system: Pseudomonas viridilivida (PSVI); experiment: Spiral plating method, growth inhibition; type: cell-based; details: P. viridilivida
Method: as §2, §3

[7] = system: Erwinia carotovora (ERWC); experiment: Spiral plating method, growth inhibition; type: cell-based; details: E. carotovora; average distance of inhibition / 28 mm × 100
Method: as §2, §3

[8] = system: spurge, white clover, annual bluegrass and crab grass; experiment: Field study of herbicidal effect, % weed control; type: in vivo
Method: A hinokitiol formulation containing 32.4% of hinokitiol by weight was tested in a field study. The formulation also contained dispersing agent, water and emulsifier. The two concentrations tested contained 5% and 0.5% hinokitiol (w/w), and the spraying volume was 100 gallons per acre. Three replicate 1-square-foot plots were sprayed with the appropriate solutions, and the % weed control in each plot was recorded at 3, 7, 14 and 20 days after treatment. The main weeds in this study were spurge, white clover, annual bluegrass and crab grass.

[9] = 0.5 mg/mL in 50% ethanol, 4 DAYS
[10] = 0.5 mg/mL in 50% ethanol, 14 DAYS
[11] = 1.0 mg/mL in 50% ethanol, 4 DAYS
[12] = 1.0 mg/mL in 50% ethanol, 14 DAYS
[13] = 2.0 mg/mL in 50% ethanol, 4 DAYS
[14] = 2.0 mg/mL in 50% ethanol, 14 DAYS
[15] = 3.0 mg/mL in 50% ethanol, 4 DAYS
[16] = 3.0 mg/mL in 50% ethanol, 14 DAYS
[17] = 4.0 mg/mL in 50% ethanol, 4 DAYS
[18] = 4.0 mg/mL in 50% ethanol, 14 DAYS
[19] = 5.0 mg/mL in 50% ethanol, 4 DAYS
[20] = 5.0 mg/mL in 50% ethanol, 14 DAYS

Structure (SMILES): CC(C)c1cccc(=O)c(O)c1 [Hinokitiol, 4-isopropyl tropolone]
- Relative stability: [hinokitiol] from sun exposure/[hinokitiol] from darkness ([1]; 6 h): 0.29
- hinokitiol concentration on each disc of green beans ([1]; 6 h darkness, 25° C.): 1.77 μg/Disc
- hinokitiol concentration on each disc of green beans ([1]; 6 h sun exposure, 28-35° C.): 0.51 μg/Disc
- hinokitiol concentration per unit area (Disc) relative to that stored in the darkness at 25° C. ([1]; after 6 h sun exposure at 28-35° C.): 29%
- [hinokitiol] in the HPLC injection solution ([1]; 6 h darkness, 25° C.): 152 µg/mL
- [hinokitiol] in the HPLC injection solution ([1]; 6 h sun exposure, 28-35° C.): 40 µg/mL
- time the residue on the plant would last ([1]; green bean plants): at least one day
- Poa annua (% control) [2, 9]: 0%
- Poa annua (% control) [2, 10]: 0%
- Poa annua (% control) [2, 11]: 1%
- Poa annua (% control) [2, 12]: 0%
- Poa annua (% control) [2, 13]: 2%
- Poa annua (% control) [2, 14]: 5%
- Poa annua (% control) [2, 15]: 10%
- Poa annua (% control) [2, 16]: 15%
- Poa annua (% control) [2, 17]: 30%
- Poa annua (% control) [2, 18]: 25%
- Poa annua (% control) [2, 19]: 50%
- Poa annua (% control) [2, 20]: 50%
- Stellaria media (% control) [3, 9]: 1%
- Stellaria media (% control) [3, 10]: 0%
- Stellaria media (% control) [3, 11]: 2%
- Stellaria media (% control) [3, 12]: 10%
- Stellaria media (% control) [3, 13]: 10%
- Stellaria media (% control) [3, 14]: 55%
- Stellaria media (% control) [3, 15]: 95%
- Stellaria media (% control) [3, 16]: 100%
- Stellaria media (% control) [3, 17]: 98%
- Stellaria media (% control) [3, 18]: 100%
- Stellaria media (% control) [3, 19]: 100%
- Stellaria media (% control) [3, 20]: 100%
- % inhibition of growth [4]: 83%
- inhibition of growth (Botrytis cinerea (BOT)): did not inhibit
- % inhibition of growth (Fusarium sp (FUSM)): 32%
- % inhibition of growth [5]: 48%
- inhibition of growth [6]: did not inhibit
- % inhibition of growth [7]: 62%
- % weed control ([8]; 0.5% hinokitiol (w/w), 3 DAYS): 3.3%
- % weed control ([8]; 0.5% hinokitiol (w/w), 7 DAYS): 3.7%
- % weed control ([8]; 0.5% hinokitiol (w/w), 14 DAYS): 1.7%
- % weed control ([8]; 0.5% hinokitiol (w/w), 20 DAYS): 3.0%
- % weed control ([8]; 5.0% hinokitiol (w/w), 7 DAYS): 90.3%
- % weed control ([8]; 5.0% hinokitiol (w/w), 14 DAYS): 88.3%
- % weed control ([8]; 5.0% hinokitiol (w/w), 20 DAYS): 83.7%
- % weed control ([8]; 5.0% hinokitiol (w/w), 100 gallons per acre, 3 DAYS): 86.7%
- weeds controlled ([8]; formulation containing 5% (w/w) hinokitiol, one week after spraying): more than 90%
- herbicidal effect on weeds ([8]; same solution at 10× lower concentration): negligible effect

Source: US20090029856A1, “Hinokitiol As A Plant Pesticide” (priority 2007, published 2009)
